Experimental data as given in patent US20230398130A1, “METHODS AND COMPOSITIONS FOR DIFFERENTIATING STEM CELLS” (Massachusetts Institute of Technology, priority 2020, published 2023).

What was measured:
ISC-enriched organoids [1] = test: Primary screen, 384-well 2.5-D organoid differentiation (ENR+CD, 6 days, Target Selective Inhibitor Library, vs whole-plate median): ATP (CellTiter-Glo 3D, CTG); details: for Z.CTG: standard z score of FC; for SSMD.CTG: strictly standardized mean difference; for Dose.FC.CTG: ENR+CD 6 days, FC vs plate median
ISC-enriched organoids [2] = test: Primary screen, 384-well 2.5-D organoid differentiation (ENR+CD, 6 days): carbachol-induced lysozyme secretion (LYZ.S); assay type: cell-based, murine; details: for Z.LYZ.S: standard z score; for Z.LYZ.S / SSMD.LYZ.S / Dose.FC.LYZ.S: primary screen; for SSMD.LYZ.S: strictly standardized mean difference; for Dose.FC.LYZ.S: ENR+CD 6 days, FC vs plate median
From the text: (§1) High-throughput screening.

ISC-enriched organoids [3] = test: Primary screen, 384-well 2.5-D organoid differentiation (ENR+CD, 6 days): basal lysozyme secretion (LYZ.NS); assay type: cell-based, murine; details: for SSMD.LYZ.NS: strictly standardized mean difference; for SSMD.LYZ.NS / Dose.FC.LYZ.NS / Z.LYZ.NS: primary screen; for Dose.FC.LYZ.NS: ENR+CD 6 days, FC vs plate median; for Z.LYZ.NS: standard z score of FC
From the text: as §1

[4] = 1st of the 4 dose lines of the treatment (dose not given)
[5] = 2nd of the 4 dose lines of the treatment (dose not given)
[6] = 3rd of the 4 dose lines of the treatment (dose not given)
[7] = 4th of the 4 dose lines of the treatment (dose not given)
[8] = dose 0.08 uM (1st of 4 lines per treatment; dose not printed in this part)
[9] = dose 0.40 uM (2nd of 4 lines per treatment; dose not printed in this part)
[10] = dose 2.00 uM (3rd of 4 lines per treatment; dose not printed in this part)
[11] = dose 10.00 uM (4th of 4 lines per treatment; dose not printed in this part)

| Structure (SMILES) | Dose.FC.CTG (ISC-enriched organoids [1]; primary screen, dose 0.08 uM) | Z.CTG (ISC-enriched organoids [1]; primary screen, dose 0.08 uM) | Dose.FC.CTG (ISC-enriched organoids [1]; primary screen, dose 0.40 uM) | Z.CTG (ISC-enriched organoids [1]; primary screen, dose 0.40 uM) | Dose.FC.CTG (ISC-enriched organoids [1]; primary screen, dose 2.00 uM) | Z.CTG (ISC-enriched organoids [1]; primary screen, dose 2.00 uM) | Dose.FC.CTG (ISC-enriched organoids [1]; primary screen, dose 10.00 uM) | Z.CTG (ISC-enriched organoids [1]; primary screen, dose 10.00 uM) | Dose.FC.LYZ.S (ISC-enriched organoids [2]; dose 0.08 uM) | Dose.FC.LYZ.S (ISC-enriched organoids [2]; dose 0.40 uM) | Dose.FC.LYZ.S (ISC-enriched organoids [2]; dose 2.00 uM) | Dose.FC.LYZ.S (ISC-enriched organoids [2]; dose 10.00 uM) | Dose.FC.LYZ.NS (ISC-enriched organoids [3]; dose 0.08 uM) | Z.LYZ.NS (ISC-enriched organoids [3]; dose 0.08 uM) | Dose.FC.LYZ.NS (ISC-enriched organoids [3]; dose 0.40 uM) | Z.LYZ.NS (ISC-enriched organoids [3]; dose 0.40 uM) | Dose.FC.LYZ.NS (ISC-enriched organoids [3]; dose 2.00 uM) | Z.LYZ.NS (ISC-enriched organoids [3]; dose 2.00 uM) | Dose.FC.LYZ.NS (ISC-enriched organoids [3]; dose 10.00 uM) | Z.LYZ.NS (ISC-enriched organoids [3]; dose 10.00 uM) | further results |
| --- | --- | --- | --- | --- | --- | --- | --- | --- | --- | --- | --- | --- | --- | --- | --- | --- | --- | --- | --- | --- | --- |
| O=C(O)Cn1nnc(-c2cc(N3CCC(Oc4cc(F)ccc4Br)CC3)no2)n1 [MK-8245] |  |  |  |  |  |  |  |  |  |  |  |  |  |  |  |  |  |  |  |  | Z.CTG (ISC-enriched organoids [1]; Dose 0.08 uM): 0.374; Z.CTG (ISC-enriched organoids [1]; Dose 0.40 uM): −0.269; Z.CTG (ISC-enriched organoids [1]; Dose 2.00 uM): −0.051; Z.CTG (ISC-enriched organoids [1]; Dose 10.00 uM): −0.629; SSMD.CTG (ISC-enriched organoids [1]; primary screen, 1st of the 4 dose lines of the treatment (dose not given)): 0.453; SSMD.CTG (ISC-enriched organoids [1]; primary screen, 2nd of the 4 dose lines of the treatment (dose not given)): −0.219; SSMD.CTG (ISC-enriched organoids [1]; primary screen, 3rd of the 4 dose lines of the treatment (dose not given)): −0.054; SSMD.CTG (ISC-enriched organoids [1]; primary screen, 4th of the 4 dose lines of the treatment (dose not given)): −0.921; Z.LYZ.S (ISC-enriched organoids [2]; [4]): 0.449; Z.LYZ.S (ISC-enriched organoids [2]; [5]): 1.194; Z.LYZ.S (ISC-enriched organoids [2]; [6]): −0.399; Z.LYZ.S (ISC-enriched organoids [2]; [7]): −0.799; SSMD.LYZ.S (ISC-enriched organoids [2]; [4]): 0.442; SSMD.LYZ.S (ISC-enriched organoids [2]; [5]): 0.527; SSMD.LYZ.S (ISC-enriched organoids [2]; [6]): −0.357; SSMD.LYZ.S (ISC-enriched organoids [2]; [7]): −0.752; SSMD.LYZ.NS (ISC-enriched organoids [3]; [4]): 0.168; SSMD.LYZ.NS (ISC-enriched organoids [3]; [5]): 0.200; SSMD.LYZ.NS (ISC-enriched organoids [3]; [6]): −0.322; SSMD.LYZ.NS (ISC-enriched organoids [3]; [7]): −0.716 |
| CN(C)Cc1ccc(-c2nc3cccc4c3n2CCNC4=O)cc1 [AG-14361] | −0.012 log 2 fold change | −0.028 | −0.069 log 2 fold change | −0.165 | 0.005 log 2 fold change | 0.012 | −0.021 log 2 fold change | −0.050 | 0.100 log 2 fold change | −0.001 log 2 fold change | −0.065 log 2 fold change | −0.189 log 2 fold change | 0.152 log 2 fold change | 1.324 | 0.036 log 2 fold change | 0.312 | 0.032 log 2 fold change | 0.278 | −0.197 log 2 fold change | −1.713 |  |
| CC1(C)CCC(CN2CCN(c3ccc(C(=O)NS(=O)(=O)c4ccc(NCC5CCOCC5)c([N+](=O)[O-])c4)c(Oc4cnc5[nH]ccc5c4)c3)CC2)=C(c2ccc(Cl)cc2)C1 [ABT-199 (GDC-0199)] | 0.019 log 2 fold change | 0.045 | 0.038 log 2 fold change | 0.090 | −0.278 log 2 fold change | −0.665 | −0.519 log 2 fold change | −1.240 | −0.044 log 2 fold change | 0.076 log 2 fold change | −0.063 log 2 fold change | −0.292 log 2 fold change | −0.002 log 2 fold change | −0.013 | −0.029 log 2 fold change | −0.251 | −0.016 log 2 fold change | −0.136 | −0.169 log 2 fold change | −1.471 | SSMD.CTG_Rep (strictly standardized mean difference) (ISC-enriched organoids [1]; [8]): 0.051; SSMD.CTG_Rep (strictly standardized mean difference) (ISC-enriched organoids [1]; [9]): 0.111; SSMD.CTG_Rep (strictly standardized mean difference) (ISC-enriched organoids [1]; [10]): −0.377; SSMD.CTG_Rep (strictly standardized mean difference) (ISC-enriched organoids [1]; [11]): −1.402; SSMD.LYZ.S_Rep (strictly standardized mean difference) (ISC-enriched organoids [2]; [8]): −0.260; Z.LYZ.S (standard z score) (ISC-enriched organoids [2]; [8]): −0.285; SSMD.LYZ.S_Rep (strictly standardized mean difference) (ISC-enriched organoids [2]; [9]): 0.443; Z.LYZ.S (standard z score) (ISC-enriched organoids [2]; [9]): 0.494; SSMD.LYZ.S_Rep (strictly standardized mean difference) (ISC-enriched organoids [2]; [10]): −0.368; Z.LYZ.S (standard z score) (ISC-enriched organoids [2]; [10]): −0.404; SSMD.LYZ.S_Rep (strictly standardized mean difference) (ISC-enriched organoids [2]; [11]): −1.131; Z.LYZ.S (standard z score) (ISC-enriched organoids [2]; [11]): −1.890; SSMD.LYZ.NS_Rep (strictly standardized mean difference) (ISC-enriched organoids [3]; [8]): −0.009; SSMD.LYZ.NS_Rep (strictly standardized mean difference) (ISC-enriched organoids [3]; [9]): −0.192; SSMD.LYZ.NS_Rep (strictly standardized mean difference) (ISC-enriched organoids [3]; [10]): −0.116; SSMD.LYZ.NS_Rep (strictly standardized mean difference) (ISC-enriched organoids [3]; [11]): −0.810 |
